Measured values published in PubChem BioAssay (NCI).
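Where inhibition never reached the appropriate level, the endpoint shown equals the highest concentration tested. Otherwise, values were interpolated linearly from a five-concentration, 48-hour dose response in 96-well plates. TGI is the concentration that stops growth completely.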

Columns and labels:
Assay in all cases: growth of human tumour cells (NCI), 48 h
KM20L2 colon = tested on: KM20L2 colon
LXFL 529 NSCLC = tested on: LXFL 529 NSCLC
M19-MEL melanoma = tested on: M19-MEL melanoma
DMS 273 small cell lung = tested on: DMS 273 small cell lung
DLD-1 colon = tested on: DLD-1 colon
SNB-78 CNS = tested on: SNB-78 CNS
HOP-18 NSCLC = tested on: HOP-18 NSCLC
DMS 114 small cell lung = tested on: DMS 114 small cell lung
RXF-631 renal = tested on: RXF-631 renal

Structure (SMILES)	TGI (KM20L2 colon)	TGI (LXFL 529 NSCLC)	TGI (M19-MEL melanoma)	TGI (DMS 273 small cell lung)	TGI (DLD-1 colon)	TGI (SNB-78 CNS)	TGI (HOP-18 NSCLC)	TGI (DMS 114 small cell lung)	TGI (RXF-631 renal)
CCCOC(=O)C1CCC(=O)N1C(=O)C(C)Cl (configuration not stated)	> 100 µM	> 100 µM	> 100 µM	> 100 µM	> 100 µM	> 100 µM	> 100 µM	> 100 µM	
C#CCNC(=O)NCCCC(NC(C)=O)C(=O)NCc1ccccc1 (configuration not stated)	> 100 µM	> 100 µM	> 100 µM		> 100 µM	> 100 µM	> 100 µM	> 100 µM	> 100 µM
Nc1ccc2nc(NCc3ccc(F)cc3)cnc2c1	> 100 µM	> 100 µM		> 100 µM		> 100 µM		> 100 µM	
CC(=O)O[C@]12CCCCC1C1(O)C(O)CCCCC12 (some centres not stated)	> 100 µM	> 100 µM	> 100 µM	> 100 µM		> 100 µM	> 100 µM	> 100 µM	
COc1ccccc1/C=C(\C#N)C(=O)c1ccccc1	> 100 µM		> 100 µM	> 100 µM		> 100 µM		> 100 µM	
CCOCN1COCN=C1NC#N	> 100 µM	> 100 µM		> 100 µM	> 100 µM	> 100 µM	> 100 µM	> 100 µM	> 100 µM
NC(=O)C#CC#CC#CCO	27.3 µM	2.35 µM	3.26 µM	4.1 µM		7.03 µM	3.28 µM	3.6 µM	
CC1OC(n2ccc(=O)[nH]c2=O)C=C(OC(=O)c2ccccc2)C1=O (configuration not stated)	> 100 µM		> 100 µM	> 100 µM	> 100 µM	> 100 µM	> 100 µM		
Cc1ccccc1C1OC(=O)c2ccccc21 (configuration not stated)	> 100 µM	> 100 µM	> 100 µM	> 100 µM	> 100 µM	> 100 µM	> 100 µM	> 100 µM	> 100 µM
NC(=O)c1cccc(C2OC(COP(=O)(O)O)C(O)C2O)c1 (configuration not stated)	> 50 µM	> 50 µM	> 50 µM	> 50 µM	> 50 µM	> 50 µM			
CCOc1ccc(NC(=O)C(=O)NO)cc1	> 100 µM	> 100 µM	> 100 µM	> 100 µM	> 100 µM	> 100 µM	> 100 µM	> 100 µM	
O=C1[C@@H]2C(c3ccc(Cl)cc3Cl)=NO[C@@H]2C(=O)N1c1ccc(Cc2ccc(N3C(=O)[C@H]4C(c5ccc(Cl)cc5Cl)=NO[C@H]4C3=O)cc2)cc1	> 100 µM	52.2 µM	> 100 µM	> 100 µM	> 100 µM	> 100 µM	> 100 µM	> 100 µM	
Cn1c2c(c3ccccc31)CCN(CCN1CCN(c3ccccc3)CC1)C2=O	> 100 µM	> 100 µM		> 100 µM	> 100 µM		> 100 µM	> 100 µM	> 100 µM
N#CCCN(c1ccc(/C=C2\N=C(Cc3ccccc3)OC2=O)cc1)S(=O)(=O)c1ccccc1	> 100 µM	> 100 µM		> 100 µM	> 100 µM	> 100 µM		> 100 µM	
N#CC(C(=O)/C(=N/NC(=O)c1ccccc1O)C(C#N)c1ccccc1)c1ccccc1 (configuration not stated)	> 100 µM	> 100 µM	> 100 µM	> 100 µM	> 100 µM	> 100 µM	> 100 µM	> 100 µM	> 100 µM
COc1ccc(/C(Cl)=C(/c2ccc(O)cc2)c2ccc(OCCN(C)C)cc2)cc1	11.7 µM	22.6 µM	18.9 µM	23.6 µM	31 µM	29.3 µM	25 µM	19.3 µM	36.7 µM
CN(C)CCC(O)(c1ccccc1)C(O)(CCN(C)C)c1ccccc1 (configuration not stated)	> 100 µM	> 100 µM	> 100 µM		> 100 µM	> 100 µM		> 100 µM	
Cc1ccc(N=NC2S/C(=C(\C#N)c3nc4ccccc4[nH]3)N(c3ccccc3)C2=O)cc1 (configuration not stated)	> 100 µM	> 100 µM	> 100 µM	> 100 µM	> 100 µM	> 100 µM		> 100 µM	
COc1ccc(NC(=O)CC(=O)N2N=C(N(CCC#N)c3ccccc3Cl)CC2c2ccccc2)cc1 (configuration not stated)	> 100 µM	> 100 µM	> 100 µM	> 100 µM	> 100 µM	> 100 µM	> 100 µM	> 100 µM	> 100 µM
O=C(CC(=O)Nc1cccc(Cl)c1)NNCC(=O)Nc1nnc(-c2ccccc2)s1	> 100 µM	> 100 µM	> 100 µM	> 100 µM	> 100 µM	> 100 µM	58.6 µM	> 100 µM	> 100 µM
